Reference: patent publication US20220079962A1, “NUTRITIONAL COMPOSITION COMPRISING 2'FUCOSYLLACTOSE AND DIETARY BUTYRATE” (N.V. Nutricia, priority 2019, published 2022)

Legend:
[1] = tested on: Caco-2 cell monolayer; assay: DON-induced impairment of Caco-2 cell monolayer integrity (TEER, lucifer yellow flux); type: cell-based, human; details: 24 h pretreatment with 0.75 wt. % GL, then DON 4.2 μM 24 h; FIGS. 1A-D
Procedure: Caco-2 cells were used according to established methods. In brief: cells were cultured in Dulbecco's modified Eagle medium (DMEM) and seeded at a density of 0.3×10^5 cells into 0.3 cm^2 high pore density (0.4 μm) inserts with a polyethylene terephthalate membrane (BD Biosciences, Franklin Lakes, N.J., USA) placed in a 24-well plate. The Caco-2 cells were maintained in a humidified atmosphere of 95 air and 5% CO2 at 37° C.
Caco-2 cell monolayers were thus grown in a transwell system, which is a model for intestinal barrier function. The monolayers were pretreated for 24 h with different GLs, including beta3′-GL, alpha3′-GL, beta4′-GL and beta6′-GL in a concentration of 0.75 wt. % of the GL, before being exposed to the fungal toxin deoxynivalenol (DON), which is a trigger and model compound to impair intestinal barrier. DON was diluted to a final concentration of 4.2 μM in complete cell medium and added to the apical side as well as to the basolateral side of the transwell inserts. […] Incubation with DON was 24 h.
Measurements of the transepithelial electrical resistance (TEER) and lucifer yellow (LY) permeability were conducted to investigate barrier integrity. For TEER measurements a Millicel-ERS voltohmmeter connected to a pair of chopsticks electrodes was used to measure the TEER values. Results are expressed as a percentage of the initial value. For paracellular tracer flux assay the membrane impermeable lucifer yellow (LY) (Sigma, St Louis, Mo., USA) was added in a concentration of 16 μg/ml to the apical compartment in the transwell plate for 4 h, and the paracellular flux was determined by measuring the fluorescence intensity in the basolateral compartment with a spectrophotofluorimeter (FLUOstar Optima, BMG Labtech, Offenburg, Germany) set at excitation and emission wavelengths of 410 and 520 nm, respectively. Release of interleukin-8 (IL-8 or CXCL8), which is a typical marker for inflammation, was quantified in the medium of the apical side and the basolateral side of the Caco-2 transwell inserts in response to the treatments. CXCL8 concentrations were measured by using the human IL-8 ELISA assay (BD Biosciences, Pharmingem, San Diego, Calif., USA) according to manufacturer's instructions. For more details on materials and methods see Akbari et al, 2016, Eur J Nutr. 56(5):1919-1930.

[2] = tested on: T84 human intestinal epithelial cells; assay: T84 monolayer barrier integrity (TEER) with IL-4; type: cell-based
Procedure: T84 human intestinal epithelial cells are commonly used to study intestinal barrier integrity in vitro. T84 cells (ATCC, USA) were cultured on 12 mm transwell inserts (0.4 μm, Corning Costrar, USA) in DMEM-F12 glutamax with penicillin-streptomycin (100 IU/ml), supplemented with 5% FBS-Hl. T84 cells were used 14 days after reaching confluence. Monolayers of T84 cultured on transwell filters were pre-incubated for 48 h with or without butyrate. These samples were subsequently incubated for an additional 48 h in the presence of IL-4 (25 ng/ml). IL-4 was added to the basolateral compartment; medium and additives were changed every 24 h.
Epithelial barrier integrity was assessed by measuring transepithelial resistance (TEER; Ω×cm^2) with the epithelial volt-ohm meter (EVOM; World Precision Instruments, Germany).

[3] = tested on: human peripheral blood mononuclear cells (PBMC); assay: PBMC cytokine levels, unstimulated condition; type: cell-based
Description: Isolation of PBMC from healthy donors: Human peripheral blood mononuclear cells (PBMC) from healthy donors were isolated from buffy coats (Sanquin, Amsterdam, the Netherlands). PBMC were obtained by centrifugation using Leucosep tubes (Greiner Bio-One). […] After lysis, the PBMC were resuspended in freezing medium (70% RPMI 1640 medium (Gibco, Thermo Fisher Technologies) supplemented with 10% heat-inactivated FCS and 100 U/ml penicillin-streptomycin, 20% heat-inactivated FCS and 10% DMSO (Sigma)) and cryopreserved. PBMC activation model: PBMC (0.2.10^6 cell/well) were cultured in 96-well flat bottom plates (Corning). For 24 hours the cells were pre-incubated with 2'-FL (Jennewein), 3'-GL (0-0.3% w/v; […] Sigma Aldrich) and combinations thereof. Subsequently, the cells were CD3/CD28-activated (Pelicluster CD3 and Pelicluster CD28, Sanquin) for an additional 24 hours. After incubation, IFNγ was measured by ELISA in the supernatants (see below). […] Roche) and/or 10% Triton (5 μl; negative control). […] Cytokine production of PBMC: PBMC were incubated with indicated reagents. After incubation, the supernatants were collected and IL2, IL6, IL10, IL13, IL21, TNFα, IFNγ, MIF, CCL1, CCL13, CCL17, CCL20, CCL22 and CXCL8-11 levels were measured by conducting a validated multiplex immunoassay based on Luminex technology (xMAP, Luminex Austin Tex. USA). Acquisition was conducted with the Biorad […] (Biorad laboratories, Hercules USA) in combination with xPONENT software version 4.2 (Luminex). Data was analyzed by 5-parametric curve fitting using Bio-Plex Manager software, version 6.1.1 (Biorad). After PBMC stimulation, cell culture supernatants were collected, after which cytokine responses were measured in order to test immune responsiveness of the cells. The levels of cytokines measured in stimulated conditions were corrected for the (low) levels of the cytokines measured in non-stimulated conditions. In addition, since each donor is reacting in its own efficiency onto the T cell stimulus, we calculated the individual index of cytokine response by dividing the intervention induced response by the basal stimulated response.

[4] = tested on: human peripheral blood mononuclear cells (PBMC); assay: PBMC cell activity (WST-1); type: cell-based; details: after 24 h
Procedure: PBMC activation model: PBMC (0.2.10^6 cell/well) were cultured in 96-well flat bottom plates (Corning). For 24 hours the cells were pre-incubated with 2′-FL (Jennewein), 3′-GL (0-0.3% w/v; […] Sigma Aldrich) and combinations thereof. Subsequently, the cells were CD3/CD28-activated (Pelicluster CD3 and Pelicluster CD28, Sanquin) for an additional 24 hours. After incubation, IFNγ was measured by ELISA in the supernatants (see below). […] Roche) and/or 10% Triton (5 μl; negative control).

## OC[C@H]1O[C@H](O[C@H]2[C@@H](O)[C@@H](CO)O[C@@H](O[C@H]3[C@H](O)[C@@H](O)C(O)O[C@@H]3CO)[C@@H]2O)[C@H](O)[C@@H](O)[C@H]1O (stereo partly drawn) [alpha3′-GL, Gal (alpha 1-3)-Gal (beta 1-4)-Glc, reference compound]
[1]
  effect on DON-induced loss of epithelial barrier integrity (TEER, LY flux): did not prevent the DON-induced disrupted intestinal barrier

## OC[C@H]1O[C@@H](O[C@@H]2[C@H](O)[C@@H](O)[C@H](O[C@H]3[C@H](O)[C@@H](O)C(O)O[C@@H]3CO)O[C@@H]2CO)[C@H](O)[C@@H](O)[C@H]1O (stereo partly drawn) [beta4′-GL, Gal (beta 1-4)-Gal (beta 1-4)-Glc, reference compound]
[1]
  effect on DON-induced loss of epithelial barrier integrity (TEER, LY flux): did not show a significant effect

## OC[C@H]1O[C@@H](OC[C@H]2O[C@@H](O[C@H]3[C@H](O)[C@@H](O)C(O)O[C@@H]3CO)[C@H](O)[C@@H](O)[C@H]2O)[C@H](O)[C@@H](O)[C@H]1O (stereo partly drawn) [beta6′-GL, Gal (beta 1-6)-Gal (beta 1-4)-Glc, reference compound]
[1]
  effect on DON-induced loss of epithelial barrier integrity (TEER, LY flux): did not show a significant effect

## CCCC(=O)O [butyrate, butyric acid]
[2]
  IL-4 induced disruption of intestinal barrier function: ameliorated
[3]; 0.2% 2′-FL, 0.2 mM butyrate
  IL10 level compared to blanc control: did not have an effect on IL10 levels
[3]; unstimulated
  CCL20 level compared to blanc control: did not have a statistically significant effect
[4]
  Immune cell activity as measured by WST: did not influence immune cell metabolic activity
